How the values were obtained:
[1] = tested on: Plasmodium falciparum; assay: Antimalarial activity against PYR-resistant Plasmodium falciparum V1/S expressing DHFR N51I/C59R/S108N/I164L quadruple mutant by [3H]-hypoxanthine incorporation assay
[2] = Inhibition of Plasmodium falciparum DHFR N51I/C59R/S108N/I164L quadruple mutant
[3] = in vitro; conditions: rat, liver microsomes
Description: Intrinsic clearance in rat liver microsomes incubated up to 60 mins in presence of NADPH by LC-MS/MS analysis

[4] = in vitro; conditions: human, liver microsomes
Description: Intrinsic clearance in human liver microsomes incubated up to 60 mins in presence of NADPH by LC-MS/MS analysis

[5] = tested on: Plasmodium falciparum; assay: Antimalarial activity against PYR-sensitive Plasmodium falciparum TM4/8.2 expressing wild type DHFR by [3H]-hypoxanthine incorporation assay; conditions: TM4/8.2, 3 h
[6] = Cytotoxicity against African green monkey Vero cells assessed as reduction in cell viability
[7] = target: Bifunctional dihydrofolate reductase-thymidylate synthase (Plasmodium falciparum K1, UniProt P13922); assay: Inhibition of wild type Plasmodium falciparum DHFR expressed in Escherichia coli BL21(DE3) pLysS cells assessed as inhibition constant using DHF as substrate measured for 80 sec in presence of NADPH
[8] = physchem; conditions: octanol/phosphate buffer, pH 7.4
Description: Lipophilicity, log D of the compound in octanol/phosphate buffer at pH 7.4 at 100 uM incubated for 2 hrs by HPLC analysis

[9] = Cytotoxicity against African green monkey Vero cells assessed as reduction in cell viability incubated for 72 hrs by sulforhodamine B assay
[10] = Inhibition of wild type Plasmodium falciparum DHFR N51I/C59R/S108N/I164L quadruple mutant expressed in Escherichia coli BL21(DE3) pLysS cells assessed as inhibition constant using DHF as substrate measured for 80 sec in presence of NADPH
[11] = Selectivity index, ratio of IC50 for cytotoxicity against African green monkey Vero cells to IC50 for antimalarial activity against PYR-resistant Plasmodium falciparum V1/S expressing DHFR N51I/C59R/S108N/I164L quadruple mutant
[12] = target: T1, Dihydrofolate reductase (Homo sapiens, UniProt P00374); assay: Inhibition of human DHFR expressed in Escherichia coli BL21(DE3) pLysS cells assessed as inhibition constant using DHF as substrate measured for 80 sec in presence of NADPH
T1 sequence (P00374 whole entry): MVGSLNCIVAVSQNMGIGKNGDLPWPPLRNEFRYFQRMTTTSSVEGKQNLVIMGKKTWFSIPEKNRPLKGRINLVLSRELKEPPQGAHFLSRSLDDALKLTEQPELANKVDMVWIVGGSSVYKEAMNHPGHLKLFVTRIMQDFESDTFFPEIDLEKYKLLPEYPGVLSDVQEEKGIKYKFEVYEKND

[13] = tested on: Plasmodium falciparum; assay: Antimalarial activity against PYR-sensitive Plasmodium falciparum TM4/8.2 expressing wild type DHFR incubated for 24 hrs by [3H]-hypoxanthine incorporation assay
[14] = tested on: Plasmodium falciparum; assay: Antimalarial activity against PYR-resistant Plasmodium falciparum V1/S expressing DHFR N51I/C59R/S108N/I164L quadruple mutant infected in human erythrocytes incubated for 24 hrs by [3H]-hypoxanthine incorporation assay

Sequence of Bifunctional dihydrofolate reductase-thymidylate synthase (P13922 whole entry): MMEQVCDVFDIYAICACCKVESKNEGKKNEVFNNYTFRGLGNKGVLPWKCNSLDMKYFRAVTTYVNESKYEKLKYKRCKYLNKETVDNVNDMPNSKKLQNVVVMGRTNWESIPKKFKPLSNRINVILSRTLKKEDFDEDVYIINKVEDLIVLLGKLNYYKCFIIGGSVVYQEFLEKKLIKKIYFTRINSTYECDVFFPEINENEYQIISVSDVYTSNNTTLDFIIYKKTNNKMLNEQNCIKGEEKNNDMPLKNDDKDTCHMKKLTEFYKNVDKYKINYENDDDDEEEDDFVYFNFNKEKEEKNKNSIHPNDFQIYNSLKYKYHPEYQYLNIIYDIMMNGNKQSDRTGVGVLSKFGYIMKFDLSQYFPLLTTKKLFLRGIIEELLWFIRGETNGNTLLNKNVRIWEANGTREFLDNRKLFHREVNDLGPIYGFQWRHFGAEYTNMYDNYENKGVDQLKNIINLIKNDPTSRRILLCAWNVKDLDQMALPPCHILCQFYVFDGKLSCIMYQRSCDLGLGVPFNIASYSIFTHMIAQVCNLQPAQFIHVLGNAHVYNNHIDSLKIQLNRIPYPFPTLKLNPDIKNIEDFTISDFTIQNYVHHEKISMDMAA

Structure (SMILES) | IC50 [1] [nM] | Ki [2] [nM] | microsomal CLint at 1 h [3] [µL/min/mg] | microsomal CLint at 1 h [4] [µL/min/mg] | IC50 [5] [nM] | IC50 [6] [nM] | Ki [7] [nM] | logD at 2 h, 100 µM [8] | IC50 at 72 h [9] [nM] | Ki [10] [nM] | selectivity ratio [11] | Ki [12] [nM] | IC50 [13] [nM] | IC50 [14] [nM]
CCc1nc(N)nc(N)c1OCCCOc1ccccc1CCC(=O)O | 56 | 0.54 | < 3 | < 3 | 5 | > 100000 |  |  |  |  |  |  |  | 
CCOC(=O)c1ccc(-c2ccc(OCCCCOc3c(N)nc(N)nc3CC)cc2)cc1 |  |  |  |  |  |  | 0.67 | > 2.5 | > 50000 | 0.99 | > 2.2 | > 250000 | 225 | 22800

From ChEMBL document CHEMBL5584290, “Novel flexible biphenyl PfDHFR inhibitors with improved antimalarial activity” (RSC Med Chem, 2024)
